Measured values from patent publication US20020037872A1, “N6 heterocyclic 5' modified adenosine derivatives” (CV Therapeutics, Inc., priority 1999, published 2002).

Experiments:
[1] = molecular target: T1, A1 receptor (Mesocricetus auratus, UniProt A0A1U8BVR4); test: Competitive binding assay, DDT1 cell membranes, [3H]CCPA; parameters: species or system hamster; settings: [3H]CCPA 2 nM, DDT1 cell membranes; read-out: Ki-DDT1 cell membrane
T1 construct: endogenous in cells; host or cells: DDT1 (DDT1 MF-2) hamster vas deferens smooth muscle cells
T1 sequence (A0A1U8BVR4 1-326): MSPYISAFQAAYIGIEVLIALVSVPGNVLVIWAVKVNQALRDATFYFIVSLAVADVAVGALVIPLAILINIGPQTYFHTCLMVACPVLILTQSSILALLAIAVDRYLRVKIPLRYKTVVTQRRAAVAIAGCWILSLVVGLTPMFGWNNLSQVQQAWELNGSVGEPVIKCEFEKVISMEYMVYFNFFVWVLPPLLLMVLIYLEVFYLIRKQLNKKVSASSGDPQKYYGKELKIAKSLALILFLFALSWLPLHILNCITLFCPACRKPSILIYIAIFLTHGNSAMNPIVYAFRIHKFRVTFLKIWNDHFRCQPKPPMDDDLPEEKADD
Method: Cells were subcultured twice weekly by dispersion in Hank's Balanced Salt Solution (HBSS) without the divalent cations and containing 1 mM EDTA. The cells were then seeded in growth medium at a density of 1.2×10^5 cells per plate and experiments were performed 4 days later at approximately one day preconfluence.
(§1) Attached cells were washed twice with HBSS (2×10 ml), scraped free of the plate with the aid of a rubber policeman in 5 ml of 50 mM Tris-HCI buffer pH 7.4 at 4° C. and the suspension homogenized for 10 s. The suspension was then centrifuged at 27,000×g for 10 min. The pellet was resuspended in homogenization buffer by vortexing and centrifuged as described above. The final pellet was resuspended in 1 vol of 50 mM Tris-HCI buffer pH 7.4 containing 5 mM MgCl2 for A1 AdoR assays. For the [^35S]GTPγS binding assay the final pellet was resuspended in 50 mM Tris-HCI pH 7.4 containing 5 mM MgCl2, 100 mM NaCl and 1 mM dithiothreitol. This membrane suspension was then placed in liquid nitrogen for 10 min, thawed and used for assays.
Competitive Binding Assay Pig striatum were prepared by homogenation in 50 mM Tris buffer (5× volume of tissue mass pH=7.4). After centrifilgation at 19,000 rpm for 25 minutes at 4° C., the supernatant was discarded, and the process was repeated twice. Compositions of this invention were assayed to determine their affinity for the A1 receptor in a pig striatum membrane prep or a DDT, membrane prep. Briefly, 0.2 mg of pig striatal membranes or DDT, cell membranes were treated with adenosine deaminase and 50 mM Tris buffer (pH=7.4) followed by mixing. To the pig membranes was added 2 μL of serially diluted DMSO stock solution of the compounds of this invention at concentrations ranging from 100 microM to 10 nM. The control received 2 microL of DMSO alone, then the antagonist [^3H] 8-cyclopentylxanthine (CPX) for pig striatum or the agonist [^3H] 2-chloro-6-cyclopentyladenosine (CCPA) for DDT, membranes in Tris buffer (50 mnM, pH of 7.4) was added to achieve a final concentration of 2 nM. After incubation at 23 C for 2 h, the solutions were filtered using a membrane harvester using multiple washing of the membranes (3×). The filter disks were counted in scintillation cocktail affording the amount of displacement of triated CPX or by the competitive binding compositions of this invention. In the case of the DDT1 cell membranes, some of the determinations of binding affinity (Ki) were made in the presence of Gpp(NH)p as noted in Table 1 (note: Gpp(NH)p shifts the receptor to a low affinity form). Greater than a 5 point curve was used to generate Ki's and the number of experiments is indicated in the column marked in Table 1 below.

[2] = molecular target: T2, A1 adenosine receptor (Mesocricetus auratus, UniProt A0A1U8BVR4); test: [35S]GTPγS binding assay, A1-agonist stimulated; assay type: biochemical, hamster; settings: agonist stimulated [35S]GTPγS binding, CPA = 100%
T2 construct: endogenous in cells; host or cells: DDT1 (DDT1 MF-2) hamster vas deferens smooth muscle cells
T2 sequence (A0A1U8BVR4 1-326): T1 sequence (A0A1U8BVR4 1-326)
Method: as §1, with “for assays. The protein content was determined by the method of Bradford (1976) using bovine serum albumin as standard.” for “for assays.”
A1-agonist stimulated [^35S]GTPγS binding was determined by a modification of the method described by Giersckik et al. (1991) and Lorenzen et al. (1993). […] Nonspecific binding was determined by the addition of 10 μM GTPγS. […] Previous reports have shown that agonist stimulated [^35S]GTPγS binding was dependent on the presence of GDP (Gierschik et al., 1991; Lorenzen et al., 1993; Traynor & Nahorski, 1995). […] In saturation experiments, 0.5 nM [^35S]GTPγS was incubated with 0.5-1000 nM GTPγS. At the end of the incubation, each suspension was filtered and the retained radioactivity determined as described above.

[3] = molecular target: T2, A1 adenosine receptor; test: cAMP assay (SPA) in DDT1 cells, forskolin-induced cAMP; assay type: cell-based, hamster; settings: normalized to full agonist CPA, 5 μM forskolin, 50 μM rolipram; for Emax: 10 min
Method: A scintillation proximity assay (SPA) using rabbit antibodies directed at cAMP using an added tracer of adenosine 3′,5′-cyclic phosphoric acid 2′-O-succinyl-3-[^125I]iodotyrosine methyl ester and fluoromicrospheres containing anti-rabbit specific antibodies as described by Amersham Pharmacia Biotech (Biotrak cellular communication assays). Briefly, DDT1 cells were cultured in clear bottomed 96 well microtiter plates with opaque wells at concentrations between 10^4 to 10^6 cells per well in 40 μl of HBSS at 37° C. (5% CO2 and 95% humidity). The partial or full A1 agonists (5 μl) of this invention were incubated at various concentrations with the DDT1 cells in the presence of rolipram (50 μM), and 5 μM forskolin for 10 min at 37° C. The cells were immediately lysed by treatment 5 μl of 10% dodecyltrirnethylammonium bromide followed by shaking using rnicroplate shaker. After incubation of the plate for 5 minutes, an imnuunoreagent solution (150 μl containing equal volumes of tracer, antiserum, and SPA fluorospheres) was added to each well followed by sealing the plate. After 15-20 h at 23° C., the amount of bound [^125] cAM to the fluoromicrospheres was determined by counting in a microtitre plate scintillation counter for 2 minutes. Comparison of counts with standard curves generated for cAMP using a similar protocol afforded the cAMP present after cell lysis.

Row | Compound | Ki [1] | Emax [2] | Emax [3] | GTPγS [2] | cAMP [3]
1 | CCOC(=O)C1C2C=CC(C2)C1NC(=O)OCC1OC(n2cnc3c(N[C@@H]4CCOC4)ncnc32)C(O)C1O (stereo partly drawn) [Compound 35, Ethyl 3-{[5-{6-[(3R)oxolan-3-yl)amiinolpurin-9-yl}(3S,2R,4R,5R)-3,4-dihydroxyoxolan-2-yl)methoxylcarbonylamino)(2S,3R)bicylo[2.2.]hept-5-ene2-carboxylate] | 1010 nM | 52% | -4% | – | –
2 | CCOC(=O)C1C2CCC(C2)C1NC(=O)OCC1OC(n2cnc3c(N[C@@H]4CCOC4)ncnc32)C(O)C1O (stereo partly drawn) [Compound 36, Ethyl 3-{[5-{6-[(3R)oxolan-3-yl)aminolpurin-9-yl}(3S,2R,4R,5R)-3,4-dihydroxyoxolan-2-yl)methoxylcarbonylamino}(2S,3R)bicylo[2.2.1]heptane-2-carboxylate] | 1520 nM | 41% | 10% | – | –
3 | O=C(NC1CCCC1OCc1ccccc1)OCC1OC(n2cnc3c(N[C@@H]4CCOC4)ncnc32)C(O)C1O (stereo partly drawn) [Compound 37] | 4240 nM | – | – | 30% | −6%
4 | O=C(NC1CCC1)OCC1OC(n2cnc3c(N[C@@H]4CCOC4)ncnc32)C(O)C1O (stereo partly drawn) [Compound 39, [(5-{6[((3R)oxolan-3-yl)amino}purin-9-yl}(3S,2R,4R,5R)3,4-dihydroxyoxolan-2-yl)methoxy]-N-cyclobutylcarboxaniide] | 447 nM | 67% | 45% | – | –
5 | C=CCNC(=O)OC[C@H]1O[C@@H](n2cnc3c(N[C@@H]4CCOC4)ncnc32)[C@H](O)[C@@H]1O [Compound 41, [(5-{6[((3R)oxolan-3-yl)amino]purin-9-yl}(3S, 2R, 4R, 5R)-3,4-dihydroxyoxolan-2-yl)methoxy]-N-prop2-enylcarboxamide] | 668 nM | 48% | 17% | – | –
6 | CCOC(=O)CCNC(=O)OCC1OC(n2cnc3c(N[C@@H]4CCOC4)ncnc32)C(O)C1O (stereo partly drawn) [Compound 42] | 3150 nM | 47% | 16% | – | –
7 | COC(=O)CNC(=O)OCC1OC(n2cnc3c(N[C@@H]4CCOC4)ncnc32)C(O)C1O (stereo partly drawn) [Compound 43] | 1700 nM | 53% | 28% | – | –
8 | OC1C(COC(=S)NC2CCCC2OCc2ccccc2)OC(n2cnc3c(N[C@@H]4CCOC4)ncnc32)C1O (stereo partly drawn) [Compound 56] | 1240 nM | – | – | 52% | 43%
9 | O=C(N[C@H]1CCC[C@@H]1O)OC[C@H]1O[C@@H](n2cnc3c(N[C@@H]4CCOC4)ncnc32)[C@H](O)[C@@H]1O [Compound 61, {(5-{6[((3R)oxolan-3-yl)amino]purin-9-yl}(3S,2R,4R,5R)-3,4dihydroxyoxolan-2-yl)methoxy]-N-((1S,2S)-2-hydroxycyclopentyl)carboxamide] | 1570 nM | 59% | 53% | – | –
10 | O=C(NC1CCCC1O)OCC1OC(n2cnc3c(N[C@@H]4CCOC4)ncnc32)C(O)C1O (stereo partly drawn) [Compound 62] | 2190 nM | 42% | 23% | – | –
11 | O=C(NC1CCCC1)OCC1OC(n2cnc3c(NC4CCOC4)nc(Cl)nc32)C(O)C1O [Compound 69, [(5-16-[((3R)oxolan-3-yl)amino]-2-chloropurin-9-yl}(3S,2R,4R,5R)-3,4-dihydroxyoxolan-2-yl)methoxy]-N-cyclopentylcarboxamide] | 380 nM | 50% | 18% | – | –
